Measured values as given in the supplement of paper PMC10307832.

Tests used:
Test in all cases: relative viability (nuclei count vs DMSO), 5 days (fraction); higher = more cells survive
[1] = compound: Cc1cnc(CNC(=O)c2c(=O)c3ccc(N4CCCN(C)CC4)nc3n3c2sc2ccccc23)cn1 [CX-5461] + Nc1ncn([C@H]2C[C@H](O)[C@@H](CO)O2)c(=O)n1 [Decitabine] (partner 2 µM)
In short: (§1)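 Cells from lung cancer lines were seeded into 1536-well plates and, one day later, dosed by pin tool. Treatments were either a single drug or a fixed dose of an anchor drug with five library-drug doses (not always all listed) in √10 steps. After 5 days, nuclei were stained in a one-step fixation (final 0.05% Triton X-100, 1% formaldehyde, 1 ug/ml Hoechst) and counted on 4× images, and relative viability is the treated-to-vehicle nuclei ratio, as the median of duplicate plates.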

[2] = compound: Cc1cnc(CNC(=O)c2c(=O)c3ccc(N4CCCN(C)CC4)nc3n3c2sc2ccccc23)cn1 [CX-5461] + CC(C)C[C@H](NC(=O)[C@H](Cc1ccccc1)NC(=O)c1cnccn1)B(O)O [Bortezomib] (partner 0.002 µM)
In short: as §1

[3] = compound: O=C(Nc1cc(C(F)(F)F)cc(C(F)(F)F)c1)c1cc(Cl)ccc1O [IMD-0354] + CCNC(=O)c1noc(-c2cc(C(C)C)c(O)cc2O)c1-c1ccc(CN2CCOCC2)cc1 [Luminespib] (partner 0.01 µM)
In short: as §1

[4] = compound: O=C(Nc1cc(C(F)(F)F)cc(C(F)(F)F)c1)c1cc(Cl)ccc1O [IMD-0354] + Cc1nc(Nc2ncc(C(=O)Nc3c(C)cccc3Cl)s2)cc(N2CCN(CCO)CC2)n1 [Dasatinib] (partner 0.075 µM)
In short: as §1

Cell Line: HCC-44
- relative viability ([1]; first compound 0.01 µM): 0.946
- relative viability ([1]; first compound 0.03162 µM): 1.02
- relative viability ([1]; first compound 0.1 µM): 0.887
- relative viability ([1]; first compound 0.3162 µM): 0.939
- relative viability ([1]; first compound 1 µM): 0.837
- relative viability ([2]; first compound 0.01 µM): 0.898
- relative viability ([2]; first compound 0.03162 µM): 0.973
- relative viability ([2]; first compound 0.1 µM): 0.844
- relative viability ([2]; first compound 0.3162 µM): 0.838
- relative viability ([2]; first compound 1 µM): 0.807
- relative viability ([3]; first compound 0.04 µM): 0.737
- relative viability ([3]; first compound 0.1265 µM): 1.1
- relative viability ([3]; first compound 0.4 µM): 0.786
- relative viability ([3]; first compound 1.265 µM): 0.311
- relative viability ([3]; first compound 4 µM): 0.239

Cell Line: HCC-78
- relative viability ([1]; first compound 0.01 µM): 0.678
- relative viability ([1]; first compound 0.03162 µM): 0.678
- relative viability ([1]; first compound 0.1 µM): 0.595
- relative viability ([1]; first compound 0.3162 µM): 0.694
- relative viability ([1]; first compound 1 µM): 0.565
- relative viability ([2]; first compound 0.01 µM): 0.434
- relative viability ([2]; first compound 0.03162 µM): 0.485
- relative viability ([2]; first compound 0.1 µM): 0.548
- relative viability ([2]; first compound 0.3162 µM): 0.498
- relative viability ([2]; first compound 1 µM): 0.428
- relative viability ([4]; first compound 0.04 µM): 0.429
- relative viability ([4]; first compound 0.1265 µM): 0.466
- relative viability ([4]; first compound 0.4 µM): 0.294
- relative viability ([4]; first compound 1.265 µM): 0.275
- relative viability ([4]; first compound 4 µM): 0.232

Cell Line: HCC-366
- relative viability ([1]; first compound 0.01 µM): 0.37
- relative viability ([1]; first compound 0.03162 µM): 0.349
- relative viability ([1]; first compound 0.1 µM): 0.293
- relative viability ([1]; first compound 0.3162 µM): 0.347
- relative viability ([1]; first compound 1 µM): 0.327
- relative viability ([2]; first compound 0.01 µM): 1.08
- relative viability ([2]; first compound 0.03162 µM): 1.18
- relative viability ([2]; first compound 0.1 µM): 1.06
- relative viability ([2]; first compound 0.3162 µM): 1.04
- relative viability ([2]; first compound 1 µM): 0.114
- relative viability ([4]; first compound 0.04 µM): 0.681
- relative viability ([4]; first compound 0.1265 µM): 0.792
- relative viability ([4]; first compound 0.4 µM): 0.382
- relative viability ([4]; first compound 1.265 µM): 0.221
- relative viability ([4]; first compound 4 µM): 0.0518

Cell Line: IA-LM
- relative viability ([2]; first compound 0.01 µM): 0.785
- relative viability ([2]; first compound 0.03162 µM): 0.795
- relative viability ([2]; first compound 0.1 µM): 0.734
- relative viability ([2]; first compound 0.3162 µM): 0.877
- relative viability ([2]; first compound 1 µM): 0.355

Cell Line: LK-2
- relative viability ([1]; first compound 0.01 µM): 0.329
- relative viability ([1]; first compound 0.03162 µM): 0.278
- relative viability ([1]; first compound 0.1 µM): 0.302
- relative viability ([1]; first compound 0.3162 µM): 0.162
- relative viability ([1]; first compound 1 µM): 0.279
- relative viability ([3]; first compound 0.04 µM): 0.195
- relative viability ([3]; first compound 0.1265 µM): 0.194
- relative viability ([3]; first compound 0.4 µM): 0.184
- relative viability ([3]; first compound 1.265 µM): 0.195
- relative viability ([3]; first compound 4 µM): 0.167
- relative viability ([4]; first compound 0.04 µM): 0.291
- relative viability ([4]; first compound 0.1265 µM): 0.288
- relative viability ([4]; first compound 0.4 µM): 0.309
- relative viability ([4]; first compound 1.265 µM): 0.224
- relative viability ([4]; first compound 4 µM): 0.22

Cell Line: NCI-H358
- relative viability ([1]; first compound 0.01 µM): 0.206
- relative viability ([1]; first compound 0.03162 µM): 0.195
- relative viability ([1]; first compound 0.1 µM): 0.151
- relative viability ([1]; first compound 0.3162 µM): 0.149
- relative viability ([1]; first compound 1 µM): 0.121
- relative viability ([3]; first compound 0.04 µM): 0.292
- relative viability ([3]; first compound 0.1265 µM): 0.286
- relative viability ([3]; first compound 0.4 µM): 0.305
- relative viability ([3]; first compound 1.265 µM): 0.322
- relative viability ([3]; first compound 4 µM): 0.167
- relative viability ([4]; first compound 0.04 µM): 0.148
- relative viability ([4]; first compound 0.1265 µM): 0.193
- relative viability ([4]; first compound 0.4 µM): 0.139
- relative viability ([4]; first compound 1.265 µM): 0.103
- relative viability ([4]; first compound 4 µM): 0.0831

Cell Line: NCI-H522
- relative viability ([1]; first compound 0.01 µM): 0.763
- relative viability ([1]; first compound 0.03162 µM): 0.641
- relative viability ([1]; first compound 0.1 µM): 0.671
- relative viability ([1]; first compound 1 µM): 0.678
- relative viability ([3]; first compound 0.04 µM): 1.03
- relative viability ([3]; first compound 0.1265 µM): 0.908
- relative viability ([3]; first compound 0.4 µM): 1.2
- relative viability ([3]; first compound 1.265 µM): 0.813
- relative viability ([3]; first compound 4 µM): 0.505
- relative viability ([4]; first compound 0.04 µM): 0.845
- relative viability ([4]; first compound 0.1265 µM): 0.904
- relative viability ([4]; first compound 0.4 µM): 0.556
- relative viability ([4]; first compound 1.265 µM): 0.573
- relative viability ([4]; first compound 4 µM): 0.404

Cell Line: NCI-H1299
- relative viability ([2]; first compound 0.01 µM): 1
- relative viability ([2]; first compound 0.03162 µM): 0.981
- relative viability ([2]; first compound 0.1 µM): 1.05
- relative viability ([2]; first compound 0.3162 µM): 1.04
- relative viability ([2]; first compound 1 µM): 0.979

Cell Line: NCI-H1395
- relative viability ([1]; first compound 0.01 µM): 0.764
- relative viability ([1]; first compound 0.03162 µM): 0.673
- relative viability ([1]; first compound 0.1 µM): 0.805
- relative viability ([1]; first compound 0.3162 µM): 0.653
- relative viability ([1]; first compound 1 µM): 0.532
- relative viability ([3]; first compound 0.04 µM): 0.73
- relative viability ([3]; first compound 0.1265 µM): 0.586
- relative viability ([3]; first compound 0.4 µM): 0.675
- relative viability ([3]; first compound 1.265 µM): 0.362
- relative viability ([3]; first compound 4 µM): 0.314
- relative viability ([4]; first compound 0.04 µM): 0.432
- relative viability ([4]; first compound 0.1265 µM): 0.47
- relative viability ([4]; first compound 0.4 µM): 0.385
- relative viability ([4]; first compound 1.265 µM): 0.372
- relative viability ([4]; first compound 4 µM): 0.291

Cell Line: NCI-H1563
- relative viability ([2]; first compound 0.01 µM): 0.894
- relative viability ([2]; first compound 0.03162 µM): 0.788
- relative viability ([2]; first compound 0.1 µM): 0.632
- relative viability ([2]; first compound 0.3162 µM): 0.742
- relative viability ([2]; first compound 1 µM): 0.499
- relative viability ([3]; first compound 0.04 µM): 0.232
- relative viability ([3]; first compound 0.1265 µM): 0.57
- relative viability ([3]; first compound 0.4 µM): 0.5
- relative viability ([3]; first compound 1.265 µM): 0.492
- relative viability ([3]; first compound 4 µM): 0.206
- relative viability ([4]; first compound 0.04 µM): 0.482
- relative viability ([4]; first compound 0.1265 µM): 0.462
- relative viability ([4]; first compound 0.4 µM): 0.422
- relative viability ([4]; first compound 1.265 µM): 0.367
- relative viability ([4]; first compound 4 µM): 0.211
